Source: patent US12428394B2, “2,4-disubstituted pyrimidine derivative, preparation method therefor and use thereof” (CHENGDU ZENITAR BIOMEDICAL TECHNOLOGY CO., LTD., priority 2019, dated 2025)

Legend:
[1] = system: MV4-11 cells (FLT3-ITD+/+); assay: Inhibition of cell proliferation by MTT experiment, MV4-11; assay type: cell-based, human; conditions: Homo sapiens, MV4-11; MTT, 72 h; read-out: IC50 value on cell proliferation inhibition, MV4-11 FLT3-ITD+/+
Text: (§1) MV4-11, MOLM-13 and SET-2 were used to determine the influence of the test compound of the present invention on the activity of cancer cells. MV4-11 and MOLM-13 were human leukemia cell lines from American Type Culture Collection (ATCC), expressing FLT3 receptor and containing FLT3-ITD mutation; and SET-2 was a primary thrombocythemia cell purchased from Chengdu Bowerston Biotechnology Co., Ltd., China, continuously expressing JAK2 receptor and containing the mutation of V617F.
(§2) MV4-11, MOLM-13 and SET-2 cells were filled in a 96-well petri dish with 100 μL IMDM as the medium, containing 10% fetal bovine serum (100 mL/bottle, purchased from Grassland Lvye Bio-Engineering Materials Co., Ltd. and cryopreserved at −20° C.), and with 10,000-15,000 cells in each well. […] In each group, 3-5 replicate wells were set and incubated in 5% CO2 at 37° C. for 72 h. At the endpoint, 20 μL MTT (5 mg/mL) was added to each well, and the cells were incubated for another 1-3 h.
(§3) After the inhibition rate of each concentration of compound on cell proliferation activity was calculated, the dose-response curve and IC50 value were fitted by Graphpad prism software according to the compound treatment concentrations and corresponding inhibition rates.

SET-2 cells (JAK2 V617F) = assay: Inhibition of cell proliferation by MTT experiment, SET-2; assay type: cell-based; conditions: Homo sapiens, SET-2; MTT, 72 h; read-out: IC50 value on cell proliferation inhibition, SET-2 (V617F)
Text: as §1, §2, §3

FLT3 = molecular target: T1, FLT3 (Homo sapiens, UniProt P36888); assay: In vitro kinase activity experiment, FLT3; assay type: biochemical; conditions: 40 min; inhibition rate of enzyme at 500 nM; measured by Eurofins; read-out: Kinase activity @ 500 nM (%) FLT3
T1 construct: purchased Eurofins
T1 sequence (P36888 27-993): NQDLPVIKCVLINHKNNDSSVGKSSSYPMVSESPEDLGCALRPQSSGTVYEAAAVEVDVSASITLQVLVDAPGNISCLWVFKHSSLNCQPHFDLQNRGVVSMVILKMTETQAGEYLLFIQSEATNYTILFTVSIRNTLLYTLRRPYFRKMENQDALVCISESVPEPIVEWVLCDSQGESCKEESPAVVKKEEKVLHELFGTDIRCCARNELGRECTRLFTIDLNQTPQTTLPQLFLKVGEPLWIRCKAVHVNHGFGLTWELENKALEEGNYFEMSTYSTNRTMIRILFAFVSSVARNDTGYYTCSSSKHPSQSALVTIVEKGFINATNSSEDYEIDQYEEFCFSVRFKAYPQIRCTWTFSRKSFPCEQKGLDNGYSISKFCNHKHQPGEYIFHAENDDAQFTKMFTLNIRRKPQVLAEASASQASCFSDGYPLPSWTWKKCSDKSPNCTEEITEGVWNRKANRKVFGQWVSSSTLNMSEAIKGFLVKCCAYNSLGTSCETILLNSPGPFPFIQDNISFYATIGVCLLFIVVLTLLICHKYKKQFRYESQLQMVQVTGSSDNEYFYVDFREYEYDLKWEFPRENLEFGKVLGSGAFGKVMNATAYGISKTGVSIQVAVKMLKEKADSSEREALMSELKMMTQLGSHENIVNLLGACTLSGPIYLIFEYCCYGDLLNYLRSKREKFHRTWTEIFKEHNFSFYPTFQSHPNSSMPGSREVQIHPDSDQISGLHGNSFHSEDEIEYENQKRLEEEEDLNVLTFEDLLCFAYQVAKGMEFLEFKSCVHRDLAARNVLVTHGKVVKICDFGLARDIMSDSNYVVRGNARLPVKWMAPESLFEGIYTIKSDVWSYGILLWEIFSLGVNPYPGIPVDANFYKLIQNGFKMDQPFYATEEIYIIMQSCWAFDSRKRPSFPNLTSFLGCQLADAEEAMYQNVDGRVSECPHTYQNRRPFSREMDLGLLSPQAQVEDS
Method: (§4) Buffer solution ([…], pH 7.0, 0.2 mm EDTA, 10 mM mncl2), kinase to be tested, substrate of kinase to be tested, 10 mM magnesium acetate and γ33P-ATP solution, and compounds with different concentrations were added to a reaction tube in turn, then MgATP was added to initiate the enzyme reaction process, and incubated at room temperature for 40 min. Then, the reaction was terminated with 5 μl of […], and 10 μl of the reaction solution was titrated onto the Filtermat A membrane, washed with 75 mM phosphate solution for three times, each time for 5 min., and then washed with methanol once. Finally, the Filtermat A membrane was dried and the scintillation count was carried out.

JAK2 = molecular target: T2, JAK2 (Homo sapiens, UniProt O60674); assay: In vitro kinase activity experiment, JAK2; assay type: biochemical; conditions: inhibition rate of enzyme at 500 nM; measured by Eurofins
T2 construct: purchased Eurofins
T2 sequence (O60674 whole entry): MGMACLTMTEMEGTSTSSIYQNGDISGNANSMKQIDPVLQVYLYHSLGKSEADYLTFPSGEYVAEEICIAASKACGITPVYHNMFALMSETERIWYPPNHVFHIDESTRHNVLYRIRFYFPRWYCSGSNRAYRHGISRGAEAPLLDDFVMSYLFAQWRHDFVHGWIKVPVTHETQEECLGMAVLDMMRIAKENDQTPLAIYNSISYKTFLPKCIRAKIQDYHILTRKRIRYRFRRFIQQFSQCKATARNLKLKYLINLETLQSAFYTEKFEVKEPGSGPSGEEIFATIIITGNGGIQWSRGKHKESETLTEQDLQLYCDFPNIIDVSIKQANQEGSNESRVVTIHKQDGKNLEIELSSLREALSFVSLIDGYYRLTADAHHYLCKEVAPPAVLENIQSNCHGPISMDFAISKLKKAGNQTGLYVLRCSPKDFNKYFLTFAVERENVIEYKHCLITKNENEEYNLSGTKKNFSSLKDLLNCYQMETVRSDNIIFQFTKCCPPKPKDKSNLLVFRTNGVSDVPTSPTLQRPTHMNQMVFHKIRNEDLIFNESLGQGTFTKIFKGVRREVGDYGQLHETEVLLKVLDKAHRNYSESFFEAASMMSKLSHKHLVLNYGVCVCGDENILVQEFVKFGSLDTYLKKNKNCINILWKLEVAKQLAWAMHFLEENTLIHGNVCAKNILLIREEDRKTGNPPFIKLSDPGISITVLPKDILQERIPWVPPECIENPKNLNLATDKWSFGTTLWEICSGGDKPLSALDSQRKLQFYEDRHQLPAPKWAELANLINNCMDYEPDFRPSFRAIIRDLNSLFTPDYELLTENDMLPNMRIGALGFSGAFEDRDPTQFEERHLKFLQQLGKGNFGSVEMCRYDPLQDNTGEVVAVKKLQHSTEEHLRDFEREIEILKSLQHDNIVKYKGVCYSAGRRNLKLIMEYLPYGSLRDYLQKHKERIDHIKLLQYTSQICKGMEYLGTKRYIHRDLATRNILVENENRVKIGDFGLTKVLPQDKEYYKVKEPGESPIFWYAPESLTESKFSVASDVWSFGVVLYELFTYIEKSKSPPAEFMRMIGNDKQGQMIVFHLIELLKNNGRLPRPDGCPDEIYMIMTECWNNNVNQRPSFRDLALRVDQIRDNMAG
Method: as §4

[2] = system: MOLM-13 cells (FLT3-ITD-/+); assay: Inhibition of cell proliferation by MTT experiment, MOLM-13; assay type: cell-based, human; conditions: Homo sapiens, MOLM-13; MTT, 72 h; read-out: IC50 value on cell proliferation inhibition, MOLM-13 FLT3-ITD-/+
Text: as §1, §2, §3

Compound | IC50 [1] [nM] | IC50 (SET-2 cells (JAK2 V617F)) [nM] | inhibition at 0.5 µM (FLT3) [%] | Kinase activity @ 500 nM (%) JAK2 (JAK2) [%] | IC50 [2] [nM]
CC(C)n1cc(-c2nc(Nc3cccc(N4CCN(C)CC4)c3)ncc2F)cn1 [CLJ-19, 5-fluoro-N-(3-(4-methylpiperazine-1-yl)phenyl)-4-(1-isopropyl-1H-pyrazol-4-yl) pyrimidine-2-amine] | 10 to 100 | 100 to 1000 | 95 | 92 | 100 to 1000
CCCCN1CCN(c2ccc(Nc3ncc(F)c(-c4cnn(C(C)C)c4)n3)nc2)CC1 [CLJ-20, 5-fluoro-N-(5-(4-butylpiperazine-1-yl)pyridine-2-yl)-4-(1-isopropyl-1H-pyrazole-4-yl) pyrimidine-2-amine] | 100 to 1000 | 100 to 1000 | 95 | 97 | 100 to 1000
CCN1CCN(Cc2ccc(Nc3ncc(F)c(-c4cnn(C(C)C)c4)n3)nc2)CC1 [CLJ-21, 5-fluoro-N-(5-((4-ethylpiperazine-1-yl)methyl)pyridine-2-yl)-4-(1-isopropyl-1H-pyrazole-4-yl) pyrimidine-2-amine] | 100 to 1000 | 100 to 1000 | 75 | 89 | 100 to 1000
CC(C)n1cc(-c2nc(Nc3ccc(N4CCN(C)CC4)cc3)ncc2F)cn1 [CLJ-22, 5-fluoro-N-(4-(4-methylpiperazine-1-yl)phenyl)-4-(1-isopropyl-1H-pyrazol-4-yl) pyrimidine-2-amine] | 100 to 1000 | 100 to 1000 | 80 | 79 | 100 to 1000
CC(C)n1cc(-c2nc(Nc3ccc(N4CCN(C)CC4)cc3F)ncc2F)cn1 [CLJ-23, 5-fluoro-N-(2-fluoro-4-(4-methylpiperazine-1-yl)phenyl)-4-(1-isopropyl-1H-pyrazol-4-yl) pyrimidine-2-amine] | 100 to 1000 | 100 to 1000 | 40 | 49 | > 1000
CC(C)n1cc(-c2nc(Nc3ccc(N4CCN(C)CC4)c(F)c3)ncc2F)cn1 [CLJ-24, 5-fluoro-N-(3-fluoro-4-(4-methylpiperazine-1-yl)phenyl)-4-(1-isopropyl-1H-pyrazol-4-yl) pyrimidine-2-amine] | 100 to 1000 | > 1000 | 32 | 28 | > 1000
CCN1CCN(c2ccc(Nc3ncc(F)c(-c4cnn(C(C)C)c4)n3)cc2F)CC1 [CLJ-26, 5-fluoro-N-(3-fluoro-4-(4-ethylpiperazine-1-yl)phenyl)-4-(1-isopropyl-1H-pyrazole-4-yl) pyrimidine-2-amine] | > 1000 | > 1000 | 30 | 19 | > 1000
CC(C)n1cc(-c2nc(Nc3ccc(N4CCCC4)c(F)c3)ncc2F)cn1 [CLJ-27, 5-fluoro-N-(3-fluoro-4-(pyrrolidine-1-yl)phenyl)-4-(1-isopropylpyrazol-4-yl) pyrimidine-2-amine] | 100 to 1000 | > 1000 | 24 | 34 | > 1000
COc1cc(Nc2ncc(F)c(-c3cnn(C(C)C)c3)n2)ccc1N1CCN(C)CC1 [CLJ-28, 5-fluoro-N-(3-methoxy-4-(4-methylpiperazine-1-yl)phenyl)-4-(1-isopropyl-1H-pyrazol-4-yl) pyrimidine-2-amine] | > 1000 | > 1000 | 21 | 25 | > 1000
CCN1CCN(c2ccc(Nc3ncc(C)c(-c4cnn(C(C)C)c4)n3)cc2F)CC1 [CLJ-30] | 10 to 100 | 100 to 1000 | 96 | 89 | 100 to 1000
